Where “and” joins values, the source holds several entries; their conditions need not be identical. Equal values may be shown once.
Test system: NCI-H1876 complex spheroid viability
Assay: Anticancer human tumor NCI-H1876 cell line growth inhibition [LSD1];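 also: spheroids exposed to compounds for one week before readout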;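 as to viability, T/C: 100% = DMSO vehicle-treated spheroids so lower means fewer viable cells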
Conditions: for viability, T/C: stronger effect = lower value
Excerpt: Multicellular complex tumor spheroid response to LSD1 Inhibitor Iadademstat in combination with a variety of drugs and investigational agents in selected tumor cell lines
The current study was undertaken to assess response to LSD1 inhibitors in combination with standard-of-care drugs and investigational agents in solid tumor complex spheroid models as well as in the K-562 leukemia. Complex spheroids include a stromal component modeled by human endothelial cells (HUVEC) and fibroblasts modeled by human mesenchymal stem cells (MSCs). The concentration ranges selected for each drug and investigational agent were based upon clinically achievable concentrations if the clinical Cmax of the agent was known.
Compounds. The drugs and investigational agents used in this study are listed on Table 1. All of the agents used, including staurosporine (NSC755774) and gemcitabine (NSC613327), were obtained from the Developmental Therapeutics Program, NCI. FDA-approved anticancer drugs are available from the NCI at http://dtp.nci.nih.gov/branches/dscb/oncology_drugset_explanation.html. Drugs and investigational agents were >95% pure by proton nuclear magnetic resonance (NMR) and liquid chromatography/mass spectrometry (LC/MS). Stock solutions were prepared at 400x in DMSO, stored at -70 degrees C, and diluted in fresh medium prior to their use. The final concentration of DMSO in cell culture wells never exceeded 0.25% (v/v). The FDA-approved anticancer drug set is available from the Developmental Therapeutics Program at https://dtp.cancer.gov/organization/dscb/obtaining/available_plates.htm. All drugs and investigational agents were tested over a range starting from a high concentration at or near the clinical Cmax and decreasing in half-log increments. If the clinical Cmax for an agent had not been determined, the highest concentration tested was 10 microM.
Cell Lines. The patient-derived cancer cell (PDC) lines: 292921-168-R-J2-PDC, K24384-001-R-PDC, and 521955-158-R2-J5-PDC pancreatic carcinomas, 556581-035-R-J1 ovarian carcinoma, 324938-238-R-J1-PDC, 855422-203-R-J1-PDC and 883617-216-R-J1-PDC urothelial bladder carcinomas, 743489-274-T-PDC renal cell carcinoma, 138582-R-J1 Merkel cell tumor, K60290-347-R-J1 and K57222-313-R-J1-PDC glioblastomas, 653999-131-R-J2-PDC, LG0703-F948-PDC, and 349418-098-R-PDC non-small cell lung carcinomas, 885512-296-R-J2-PDC, 171881-019-R-J1-PDC breast carcinomas and 186277-243-T-J2-PDC and 233499-124-R-J2-PDC colon carcinomas were obtained from the NCI Patient-Derived Models Repository (PDMR, https://pdmr.cancer.gov). The established cell lines NCI/ADR-RES (RRID:CVCL_14520 and OVCAR-5 (RRID:CVCL_1628) ovarian carcinomas, 786-O (RRID:CVCL_1051) and A498 (RRID:CVCL_A498) renal cell carcinoma, NCI-H211 (ATCC, cat. CRL-5824; RRID:CVCL_1529), NCI-H196 (ATCC, cat. CRL-5823, RRID:CVCL_1509), SW 1271 (ATCC, cat. CRL-2177, RRID:CVCL_1716) and NCI-H1876 (ATCC, cat. CRL-5902, RRID:CVCL_1503) small cell lung carcinomas, MDA-MB-231 (RRID:CVCL_0062) and MDA-MB-468 (RRID:CVCL_0419)breast carcinomas (10-12). Pooled donor human umbilical vein endothelial cells (HUVEC, Lonza, cat. CC-2519) and human mesenchymal stem cells (hMSC, Lonza, cat. PT-2501) were purchased from Lonza (Walkersville, MD).
Cell Culture. All cells were maintained in an incubator at 37 degrees C and 5% CO2 with 95% humidity. The PDC lines were cultured according to standard operating procedures established by the NCI PDMR (https://pdmr.cancer.gov). Briefly all PDCs were thawed and cultured in Matrigel-coated flasks prepared with a working solution of 1X Ham's F-12 nutrient mix, without supplementation (Invitrogen, Waltham, MA, cat. 11765054), 100 U/mL penicillin-streptomycin (Invitrogen, cat. 15140122), and 2.5% Matrigel (Corning Inc., Corning, NY, cat. 354248) for the first three passages. […]

[1] = curve of first compound, second compound 0.1 µM
[2] = curve of first compound, second compound 0.316 µM
[3] = curve of first compound, second compound 1 µM
[4] = curve of first compound, second compound 3.16 µM
[5] = curve of first compound, second compound 10 µM
[6] = second compound 0.1 µM, first compound 0.00949 µM
[7] = second compound 0.1 µM, first compound 0.03 µM
[8] = second compound 0.1 µM, first compound 0.0949 µM
[9] = second compound 0.1 µM, first compound 0.3 µM
[10] = second compound 0.1 µM, first compound 0.949 µM
[11] = second compound 0.1 µM, first compound 3 µM
[12] = second compound 0.316 µM, first compound 0.00949 µM
[13] = second compound 0.316 µM, first compound 0.03 µM
[14] = second compound 0.316 µM, first compound 0.0949 µM
[15] = second compound 0.316 µM, first compound 0.3 µM
[16] = second compound 0.316 µM, first compound 0.949 µM
[17] = second compound 0.316 µM, first compound 3 µM
[18] = second compound 1 µM, first compound 0.00949 µM
[19] = second compound 1 µM, first compound 0.03 µM
[20] = second compound 1 µM, first compound 0.0949 µM
[21] = second compound 1 µM, first compound 0.3 µM
[22] = second compound 1 µM, first compound 0.949 µM
[23] = second compound 1 µM, first compound 3 µM
[24] = second compound 3.16 µM, first compound 0.00949 µM
[25] = second compound 3.16 µM, first compound 0.03 µM
[26] = second compound 3.16 µM, first compound 0.0949 µM
[27] = second compound 3.16 µM, first compound 0.3 µM
[28] = second compound 3.16 µM, first compound 0.949 µM
[29] = second compound 3.16 µM, first compound 3 µM
[30] = second compound 10 µM, first compound 0.00949 µM
[31] = second compound 10 µM, first compound 0.03 µM
[32] = second compound 10 µM, first compound 0.0949 µM
[33] = second compound 10 µM, first compound 0.3 µM
[34] = second compound 10 µM, first compound 0.949 µM
[35] = second compound 10 µM, first compound 3 µM

In the case of `Nc1ncn(C2CC(O)C(CO)S2)c(=O)n1` (centres undefined), the viability, T/C (compound 0.000949 µM) is reported as 105% and 97.8%, the viability, T/C (compound 0.003 µM) is reported as 96.8% and 99.5% and the viability, T/C (compound 0.00949 µM) is reported as 100% and 95.5%. For the same compound, the viability, T/C (compound 0.03 µM) was 81.2% and 81.3%, the viability, T/C (compound 0.0949 µM) was 83.2% and 71.1% and the viability, T/C (compound 0.3 µM) was 59.5% and 50.1%. For the same compound, the IC50 (curve of compound) was > 300 nM.
`Nc1ccccc1NC(=O)c1ccc(CNC(=O)OCc2cccnc2)cc1` + NC1CCC(NC2CC2c2ccccc2)CC1 showed an IC50 [1] of 186 nM, an IC50 [2] of 177 nM and an IC50 [3] of 185 nM. The IC50 [4] was 170 nM, the IC50 [5] was 179 nM and the viability, T/C [6] was 98.5%. It also gave a viability, T/C [7] of 109%, a viability, T/C [8] of 90.6% and a viability, T/C [9] of 21.2%. For the same compound, the viability, T/C [10] was 4.45%, the viability, T/C [11] was 1.28% and the viability, T/C [12] was 113%. For the same compound, the viability, T/C [13] was 108%, the viability, T/C [14] was 78.3% and the viability, T/C [15] was 26.3%. For the same compound, the viability, T/C [16] was 3.15%, the viability, T/C [17] was 1.03% and the viability, T/C [18] was 114%. For the same compound, the viability, T/C [19] was 115%, the viability, T/C [20] was 86.2% and the viability, T/C [21] was 23.3%. It also gave a viability, T/C [22] of 11.6%, a viability, T/C [23] of 1.66% and a viability, T/C [24] of 111%. It also gave a viability, T/C [25] of 104%, a viability, T/C [26] of 80% and a viability, T/C [27] of 21.2%. It also gave a viability, T/C [28] of 2.36%, a viability, T/C [29] of 0.71% and a viability, T/C [30] of 102%. The viability, T/C [31] was 102%, the viability, T/C [32] was 86.5% and the viability, T/C [33] was 20.2%. The viability, T/C [34] was 10.6% and the viability, T/C [35] was 1.74%.
Compound `Nc1ccn(C2OC(CO)C(O)C2(F)F)c(=O)n1` (centres undefined) + NC1CC1c1ccc(-c2cccc(O)c2)cc1 has an IC50 [1] of 6.24 nM, an IC50 [2] of 6.23 nM and an IC50 [3] of 6.24 nM. The IC50 [4] was 6.33 nM, the IC50 [5] was 6.89 nM and the viability, T/C (second compound 0.1 µM, first compound 0.000949 µM) was 104%. It also gave a viability, T/C (second compound 0.1 µM, first compound 0.003 µM) of 93.9%, a viability, T/C [6] of 24.8% and a viability, T/C [7] of 9.9%. It also gave a viability, T/C [8] of 8.25%, a viability, T/C [9] of 7.07% and a viability, T/C (second compound 0.316 µM, first compound 0.000949 µM) of 103%. It also gave a viability, T/C (second compound 0.316 µM, first compound 0.003 µM) of 91.5%, a viability, T/C [12] of 26% and a viability, T/C [13] of 10.9%. For the same compound, the viability, T/C [14] was 7.72%, the viability, T/C [15] was 7.02% and the viability, T/C (second compound 1 µM, first compound 0.000949 µM) was 108%. It also gave a viability, T/C (second compound 1 µM, first compound 0.003 µM) of 87.2%, a viability, T/C [18] of 28.7% and a viability, T/C [19] of 9.78%. The viability, T/C [20] was 8.57%, the viability, T/C [21] was 7.79% and the viability, T/C (second compound 3.16 µM, first compound 0.000949 µM) was 104%. The viability, T/C (second compound 3.16 µM, first compound 0.003 µM) was 87%, the viability, T/C [24] was 29.9% and the viability, T/C [25] was 10.1%. It also gave a viability, T/C [26] of 8.03%, a viability, T/C [27] of 7.36% and a viability, T/C (second compound 10 µM, first compound 0.000949 µM) of 101%. For the same compound, the viability, T/C (second compound 10 µM, first compound 0.003 µM) was 91.4%, the viability, T/C [30] was 34% and the viability, T/C [31] was 13.2%. For the same compound, the viability, T/C [32] was 10.4% and the viability, T/C [33] was 11.8%.
For `Nc1ccn(C2OC(CO)C(O)C2(F)F)c(=O)n1` (centres undefined), the viability, T/C (compound 0.000949 µM) was 98.6% and 98.7%, the viability, T/C (compound 0.003 µM) was 53.8% and 86.9% and the viability, T/C (compound 0.00949 µM) was 29.2% and 23.5%. For the same compound, the viability, T/C (compound 0.03 µM) was 23.6% and 9.68%, the viability, T/C (compound 0.0949 µM) was 11.3% and 8.77% and the viability, T/C (compound 0.3 µM) was 10.5% and 7.09%. The IC50 (curve of compound) was 3.7 nM and 5.87 nM.
`CCN(c1cc(-c2ccc(CN3CCOCC3)cc2)cc(C(=O)NCc2c(C)cc(C)[nH]c2=O)c1C)C1CCOCC1` + NC1CCC(NC2CC2c2ccccc2)CC1 was tested, and the IC50 [1] was > 3000 nM, the IC50 [2] was > 3000 nM and the IC50 [3] was > 3000 nM. For the same compound, the IC50 [4] was > 3000 nM, the IC50 [5] was > 3000 nM and the viability, T/C [6] was 108%. For the same compound, the viability, T/C [7] was 103%, the viability, T/C [8] was 104% and the viability, T/C [9] was 93.8%. It also gave a viability, T/C [10] of 85.3%, a viability, T/C [11] of 64% and a viability, T/C [12] of 110%. The viability, T/C [13] was 117%, the viability, T/C [14] was 102% and the viability, T/C [15] was 93.3%. It also gave a viability, T/C [16] of 87.1%, a viability, T/C [17] of 65.8% and a viability, T/C [18] of 104%. For the same compound, the viability, T/C [19] was 111%, the viability, T/C [20] was 102% and the viability, T/C [21] was 91.3%. For the same compound, the viability, T/C [22] was 84.9%, the viability, T/C [23] was 54.4% and the viability, T/C [24] was 99.8%. For the same compound, the viability, T/C [25] was 109%, the viability, T/C [26] was 106% and the viability, T/C [27] was 108%. The viability, T/C [28] was 86.3%, the viability, T/C [29] was 56.3% and the viability, T/C [30] was 115%. The viability, T/C [31] was 106%, the viability, T/C [32] was 97.4% and the viability, T/C [33] was 97.6%. It also gave a viability, T/C [34] of 79% and a viability, T/C [35] of 56.8%.
